Reference: patent US5550165A, “Pharmaceutical compositions for the treatment of hereditary tyosinemia type I” (Zeneca Limited, priority 1991, dated 1996)

What was measured:
[1] = test system: tyrosinaemia (type I) patients; assay: Therapeutic evaluation in patients with tyrosinaemia (type I); format: in vivo, human
Experimental: Patients with an advanced form of the disease will be given the test composition (generally about 0.2-2.0 mg of active ingredient per kg body weight) orally. A blood sample will be taken daily during the first week and then less frequently at the discretion of the physician. Urine specimens will normally be collected daily. The indicators outlined below will be used to monitor the response to the test composition. The treatment will be maintained for up to 12 months if a clinically and biochemically satisfactory response is observed. If not, the dose of active ingredient administered will be increased stepwise to a maximum of about 2 mg/kg per day. Should any adverse indication occur, based on the biochemical monitoring or clinical assessment dosing will be stopped immediately.
The patients will be placed on a tyrosine-restricted diet with the aim of keeping plasma tyrosine concentrations below 500 μmol/L. A large increase in the tyrosine concentration in plasma is not expected to occur, but levels will be monitored throughout the dosing. Changes in the excretion of the biochemical markers mentioned below, such as succinylacetoacetate, succinylacetone and 5-aminolevulinic acid will be monitored, as will the effect on porphobilinogen synthase and α-fetoprotein concentration.
Tyrosine and Methionine--these amino acids will be determined in plasma by a standard technique using an amino-acid analyser.
Succinylacetoacetate and Succinylacetone--these compounds will be determined in urine by gas chromatography--mass spectrometry. Succinylacetone in plasma will be determined by measuring the inhibition of porphobilinogen synthase using a conventional assay.
5-Aminolevulinic acid--this will be determined in urine by a conventional colorimetric assay.
α-Fetoprotein--this will be determined in plasma by a conventional radioimmunoassay technique.
Porphobilinogen synthase--this will be determined in erythrocytes using a conventional colorimetric assay.
A patient was admitted to hospital after problems with slight nose bleedings and the parents noting swelling of the abdomen. Metabolic screening in hospital diagnosed tyrosinaemia (type I) based on the abnormal excretion of succinylacetone, succinylacetoacetate and 5-aminolevulinic acid in urine and a low activity of porphobilinogen synthase in erythrocytes. […] This was increased to 0.16 mg/kg b.w. after four days, and then to about 0.4 mg/kg by the end of the first 2 months, the dose being divided into two portions for morning and afternoon administration. The dose was then increased to about 0.6 mg/kg after a further 5 months.

[2] = 90 day oral toxicity in rhesus monkeys; format: in vivo; settings: over 90 days, daily oral dose of 10 mg/kg
[3] = test system: tyrosinaemia (type I) patients; assay: Therapeutic evaluation in patients with tyrosinaemia (type I); format: in vivo, human; remark: listed apart in the source
[4] = Patient 1, capsule formulation, 0.08 increased to about 0.6 mg/kg b.w.
[5] = Patient 3, capsule formulation 0.2 mg/kg b.w., after 5 months 0.6 mg/kg b.w.
[6] = Patient 2, capsule formulation 0.2 mg/kg b.w.
[7] = Patient 4, capsule formulation 0.2 mg/kg b.w., after 5 months 0.6 mg/kg b.w.

Structure (SMILES): O=C1CCCC(=O)C1C(=O)c1ccc(C(F)(F)F)cc1[N+](=O)[O-] [the Compound, 2-(2-nitro-4-trifluoromethylbenzoyl)-1,3-cyclohexanedione]
- excretion of 5-aminolevulinic acid [1, 4]: concomitant decrease
- porphobilinogen synthase activity in erythrocytes [1, 4]: immediate increase
- overall clinical condition of the patient ([1]; Patient 1, during the treatment period): improved markedly
- plasma succinylacetone levels ([1]; Patient 1, immediate decrease, after about 30 days): to the limit of detection
- decrease of concentration of amino acids in urine ([1]; Patient 1, very high before treatment, after treatment): 5-10 times
- urinary levels of succinylacetone [1, 5]: substantially lowered
- toxic or other adverse effects [2]: no significant toxic or other adverse effects
- serum α-fetoprotein concentration after dosing ([3]; Patient 1, decreased from 7,200 μg/L during dosing): 96 µg/L
- excretion of succinylacetone and succinylacetoacetate after treatment ([3]; Patient 1, urine, immediate decrease from 50 mmol/mol of creatinine): < 1 mmol/mol of creatinine
- methionine concentration in plasma ([3]; Patient 1, very high initially, after start of treatment): dropped to normal levels very rapidly
- clinical position of the patient ([3]; Patient 2, 0.2 mg/kg b.w.): improved
- serum levels of α-fetoprotein after treatment ([3]; Patient 2, 0.2 mg/kg b.w., decreased from ca. 900 μg/L): 40 µg/L
- serum levels of succinylacetone [3, 6]: decreased
- urinary levels of 5-aminolevulinic acid [3, 6]: decreased
- urinary levels of succinylacetone [3, 6]: decreased
- porphobilinogen synthase activity ([3]; Patient 2, capsule formulation 0.2 mg/kg b.w., initial 3 month dosing period): increased to normal levels
- clinical position of the patient ([3]; Patient 3, 0.2 then 0.6 mg/kg b.w.): improved
- serum levels of α-fetoprotein after treatment ([3]; Patient 3, 0.2 then 0.6 mg/kg b.w., fell from ca. 900 μg/L): 11 µg/L
- plasma levels of succinylacetone [3, 5]: substantially lowered
- urinary levels of 5-aminolevulinic acid [3, 5]: substantially lowered
- clinical position of the patient ([3]; Patient 4, 0.2 then 0.6 mg/kg b.w.): improved
- serum levels of α-fetoprotein after treatment ([3]; Patient 4, 0.2 then 0.6 mg/kg b.w., fell from ca. 2000 μg/L): 48 µg/L
- plasma levels of succinylacetone [3, 7]: substantially lowered
- urinary levels of 5-aminolevulinic acid [3, 7]: substantially lowered
- urinary levels of succinylacetone [3, 7]: substantially lowered
